A word on the Ki: it is the equilibrium dissociation constant of an inhibitor or competing ligand from its target. As a reminder, the IC50 is the concentration that gives 50% inhibition.

Consider 4 compounds from patent US7807845B2, “Resistance-repellent retroviral protease inhibitors” (priority 2004, dated 2010).

For one assay, the target named is mutant HIV PR (Mutant 8) (Human immunodeficiency virus type 1 group M subtype B, UniProt P04585). Briefly: HIV PR inhibition assay, Mutant 8. It is filed as biochemical. Particulars: read-out: Ki Mutant 8; recombinant mutant HIV PR, fluorogenic substrate, pH 6.5. As for the experimental part: (§1) Expression and purification of WT and mutant HIV PR. Recombinant wild type and mutant HIV PRs were expressed using pET21 vector (Novagen) in E. coli cells, and purified and refolded as described previously (Gulnik et al, 1995). The cells were resuspended in 50 mM tris-HCl buffer, pH 8.0, 25 mM NaCl, 0.2% β-mercaptoethanol (buffer A), sonicated and centrifuged. Inclusion bodies were washed first with buffer A, then with buffer A containing respectively 0.1% Triton X-100, 1 M NaCl, 1 M urea, and finally with buffer A alone. Purified inclusion bodies were solubilized by addition of buffer A containing 8 M urea at room temperature. The solution was clarified by centrifugation and loaded onto 2.6×9.5 cm Q-Sepharose column. Flow-through fractions were collected and dialyzed against 3 changes of refolding buffer, which consists of 25 mM Na-phosphate, pH 7.0, 25 mM NaCl, 0.2% β-mercaptoethanol and 10% glycerol, aliquoted and stored at −80° C.
(§2) Inhibition constants were determined using the fluorogenic substrate ArgGlu(EDANS)[…]DABCYL)Arg (Amichem, USA). HIV Protease was preincubated for 0.5-1 min at ambient temperature on a 96 well plate with different concentrations of inhibitor in 0.05 M sodium phosphate buffer, pH 6.5, containing 20 mM NaCl, 2 mM DTT and 0.01% Tween-20. The reaction was initiated by the addition of substrate. Final enzyme concentration was 2-5 nM for WT and 2-30 nM for mutants. Substrate concentration was 20 uM and DMSO concentration 2%. The increase in fluorescence intensity at the emission maximum of 520 nm (excitation wavelength 340 nm, cut-off filter 495 nm) was monitored as a function of time using a Spectramax Gemini fluorescence plate reader (Molecular Devices, CA USA). The initial rate of hydrolysis was calculated by first-degree polynomial fit using SoftMAX operating software. Data were fitted to the Michaelis-Menten equation for competitive inhibitors. For tight-binding inhibitors the data were fitted by nonlinear regression analysis to the equation V=V0/2Et({[Ki(1+S/Km)+It−Et]^2+4Ki(1+S/Km)Et}^1/2−[Ki(1+S/Km)+It−Et]) (Williams and Morrison, 1979) with the program GraFit, version 5 (Erithacus Software Limited, UK), where V and V0 are initial velocities with and without inhibitor, Km is the Michaelis-Menten constant and S, Et and It are the concentrations of substrate, active enzyme and inhibitor respectively.

For a further assay, the system named is WT=HIVHXB2. Put plainly: Antiviral assay in MT-4 cells (MTT), WT virus. It is filed as cell-based, HIV. Conditions: Human immunodeficiency virus 1, MT4, 120 h, HIVHXB2, 5 days. As for the experimental part: (§3) MT-4 cells were obtained from the AIDS Research and Reference Reagent Program (ARRRP, Division of AIDS, NIAID, NIH: MT-4 from Dr. D. Richman). Cells were propagated in RPMI 1640 supplemented with 10% fetal bovine serum, 50U of penicillin and 50 μg of streptomycin per ml (Invitrogen, Carlsbad Calif.). The following HIV viruses were used for testing of antiviral potency of compounds: WT=HIVHXB2; recombinant HIVHXB2 virus from drug resistant patient isolates; HIVmutant10 (16 mutations); HIVmutant8 (14 mutations); HIVmutant9 (10 mutations).
(§4) The potency of test compound was determined as previously described (ref 1-3) with minor modifications. MT-4 cells (1.5×10^4/ml) were exposed to 200 50 % tissue culture infective doses (TCID50) of viruses in the presence of various concentrations of test compound in 96 well microtiter plates and incubated at 37° C. for 5 days. 3-(4,5-dimethylthiazol-2-yl)-2,5-diphenytetrazolium bromide (MTT) solution was added to a final concentration of 0.75 mg/ml, and plates were incubated 1 hour. After incubation cells were dissolved in isopropanol/Triton-X 100/HCl (1000:50:25) solution. Absorbance was monitored in a microplate reader (Spectramax, Molecular Devices) at 540 nm and 690 nm. Cytotoxicity of compounds was tested in a similar assay in the absence of virus.

Assay [1] concerns HIVmutant10 (16 mutations). Briefly: Antiviral assay in MT-4 cells (MTT), mutant 10 virus. It is filed as cell-based, HIV. Particulars: Human immunodeficiency virus 1, MT4, 120 h, read-out: IC50 Mutant 10. As for the experimental part:
as §3, §4

The target of assay [2] is mutant HIV PR (Mutant 10) (Human immunodeficiency virus type 1 group M subtype B, UniProt P04585). Briefly: HIV PR inhibition assay, Mutant 10. The format is biochemical. Conditions: read-out: Ki Mutant 10; recombinant mutant HIV PR, fluorogenic substrate, pH 6.5. As for the experimental part:
as §1, §2

A further assay has as its target T1, wild type HIV PR (Human immunodeficiency virus type 1 group M subtype B, UniProt P04585).
T1 construct: Recombinant wild type and mutant HIV PRs were expressed using pET21 vector (Novagen) in E. coli cells; made in house
Put plainly: HIV PR inhibition assay, wild type. It is filed as biochemical. As for the experimental part: as §1, §2

A further assay deals with mutant HIV PR (Mutant 9) (Human immunodeficiency virus type 1 group M subtype B, UniProt P04585). Put plainly: HIV PR inhibition assay, Mutant 9. It is filed as biochemical. Particulars: read-out: Ki Mutant 9; recombinant mutant HIV PR, fluorogenic substrate, pH 6.5. As for the experimental part:
as §1, §2

For assay [3], the system named is HIVmutant8 (14 mutations). Put plainly: Antiviral assay in MT-4 cells (MTT), mutant 8 virus. The format is cell-based, HIV. Conditions: Human immunodeficiency virus 1, MT4, 120 h, read-out: IC50 Mutant 8. As for the experimental part:
as §3, §4

For assay [4], the system named is HIVmutant9 (10 mutations). Put plainly: Antiviral assay in MT-4 cells (MTT), mutant 9 virus. The format is cell-based, HIV. Particulars: Human immunodeficiency virus 1, MT4, 120 h, read-out: IC50 Mutant 9. As for the experimental part:
as §3, §4

For the compound `CCCN(C=C1C(=O)Nc2ccc(S(=O)(=O)N(CC(C)C)CC(O)C(Cc3ccccc3)NC(=O)OC3COC4OCCC34)cc21)CCC` (centres unmarked) [Compound 32, {1-Benzyl-3-[(3-dipropylaminomethylene-2-oxo-2,3-dihydro-1H-indole-5-sulfonyl)-isobutyl-amino]-2-hydroxy-propyl}-carbamic acid hexahydro-furo[2,3-b]furan-3-yl ester], the Ki is less than 0.0003 µM at mutant HIV PR (Mutant 8), less than 0.001 µM in assay [2], less than 0.0001 µM at wild type HIV PR and less than 0.0001 µM at mutant HIV PR (Mutant 9). Moreover, the IC50 with WT=HIVHXB2 worked out at 0.01 µM; in assay [1], 0.058 µM; in assay [3] it was 0.024 µM; in assay [4], 0.012 µM.

On to `CCCN(C=C1C(=O)Nc2ccc(S(=O)(=O)N(CC(C)C)CC(O)C(Cc3ccccc3)NC(=O)OC3COC4OCCC34)cc21)CC` (centres unmarked) [Compound 106], for which the Ki on mutant HIV PR (Mutant 8) is less than 0.0003 µM; in assay [2], less than 0.001 µM; on wild type HIV PR it was less than 0.0001 µM; on mutant HIV PR (Mutant 9), less than 0.0001 µM. In addition, the IC50 in the assay on WT=HIVHXB2 amounted to 0.021 µM; in assay [1], 0.06 µM; in assay [3], 0.03 µM; in assay [4] it was 0.02 µM.

As for `CCc1cccc(NC=C2C(=O)Nc3ccc(S(=O)(=O)N(CC(C)C)CC(O)C(Cc4ccccc4)NC(=O)OC4COC5OCCC45)cc32)n1` (centres unmarked) [Compound 112], the Ki was less than 0.0003 µM on mutant HIV PR (Mutant 8), 0.0064 µM in assay [2], less than 0.0001 µM on wild type HIV PR and 0.00017 µM at mutant HIV PR (Mutant 9). Moreover, the IC50 is 0.007 µM in the assay with WT=HIVHXB2, 0.2 µM in assay [1], 0.05 µM in assay [3] and 0.03 µM in assay [4].

In the case of `CCOC(=O)C(NC=C1C(=O)Nc2ccc(S(=O)(=O)N(CC(C)C)CC(O)C(Cc3ccccc3)NC(=O)OC3COC4OCCC34)cc21)C(C)C` (centres unmarked) [Compound 133], the Ki on mutant HIV PR (Mutant 8) was less than 0.0003 µM; in assay [2], 0.0031 µM; on wild type HIV PR, 0.00014 µM; at mutant HIV PR (Mutant 9), 0.0004 µM. Besides, the IC50 with WT=HIVHXB2 is 0.017 µM; in assay [1] it was 0.027 µM; in assay [3], 0.019 µM; in assay [4] it was 0.016 µM.
